{
  "source": "patent US10357525B2",
  "about": "“Use of a polysaccharide mixture for treating hyperglycemia” (TRINEO BIOTECHNOLOGY CO. LTD, priority 2017, dated 2019)",
  "tested_on": "NIT-1 cells",
  "test": "STZ-induced apoptosis in NIT-1 cells, cell viability by MTT assay",
  "type": "cell-based, mice",
  "details": "STZ 8 μM alone, FIG. 1",
  "protocol": "Cells. Cell line used in the present study was pancreatic beta cell line NIT-1 ([…], BCRC). NIT-1 cells were cultured and maintained in Ham's F12K medium with 2 mM L-glutamine adjusted to contain 1.5 g/L sodium bicarbonate, 90%; heat-inactivated dialyzed fetal bovine serum(FBS), 10%; 100 units/mL penicillin G, 100 units/mL streptomycin (pH 7.4) and 1% non-essential amino acids(NEAA). were maintained in humidified environment comprising 5%CO2/95% air at 37° C.\nNIT-1 cells were seeded into 96-well plates at a density of 1.0×10^5 cells per well and cultured in their normal growth media overnight. Next day, cells were incubated in the presence of streptozotocin (STZ) (8 μM) and the polysaccharide mixture (abbreviated as “FPA”, 100 μg/mL) of the present invention for 24 hrs, then cell viability was determined by MTT assay.\nNIT-1 cells are pancreatic beta cell lines established from transgenic mice spontaneously developing beta-cell adenoma, thus, NIT-1 cells are suitable for hyperglycemia study for they are not responsive to glucose in the physiological range. […] Accordingly, the protective effect of the present polysaccharide mixture of example 1 on STZ-treated NIT-1 cells was evaluated by MTT assay. Result is illustrated in FIG. 1.",
  "data": [
    {"smiles": "CN(N=O)C(=O)N[C@H]1C(O)O[C@H](CO)[C@@H](O)[C@@H]1O", "note": "(mixture of isomers) [STZ, streptozotocin]", "values": [
      {"measurement": "portion of NIT-1 cells died", "result": "about 60%"}
    ]}
  ]
}
